{"source": "paper PMC3236098", "about": "(Bioorganic & medicinal chemistry, 2011)", "key": {"hTAAR1": {"molecular_target": "T1, hTAAR1 (Homo sapiens, UniProt Q96RJ0)", "T1 sequence (Q96RJ0 1-339)": "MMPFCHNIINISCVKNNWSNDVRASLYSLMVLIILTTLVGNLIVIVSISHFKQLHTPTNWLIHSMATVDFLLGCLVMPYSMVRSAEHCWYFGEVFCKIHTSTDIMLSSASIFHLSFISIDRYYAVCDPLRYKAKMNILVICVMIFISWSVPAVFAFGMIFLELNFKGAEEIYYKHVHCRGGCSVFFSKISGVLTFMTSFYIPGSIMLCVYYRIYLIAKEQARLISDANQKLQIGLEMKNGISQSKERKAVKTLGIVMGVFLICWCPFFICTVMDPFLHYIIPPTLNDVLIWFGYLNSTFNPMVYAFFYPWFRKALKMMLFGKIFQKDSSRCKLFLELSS", "assay_type": "cell-based"}, "[1]": {"details": "cited from earlier work; for excitation in humans: doses of 100 mg (or greater)"}, "rTAAR1": {"test_system": "rTAAR1", "details": "read-out: EC50 Rat TAAR1; cited from earlier work"}, "DAT": {"test_system": "DAT", "details": "read-out: EC50 in rat synaptosomes; reference not given; cited from earlier work"}, "mTAAR1": {"test_system": "mTAAR1", "details": "read-out: EC50 Mouse TAAR1; cited from earlier work"}}}
{"smiles": "C[C@H](N)Cc1cccc(C(F)(F)F)c1", "note": "[(S)-6, (S)-norfenfluramine]", "values": [{"measurement": "EC50 Human, potency to activate TAAR1", "setting": "hTAAR1", "value": "active ^*"}]}
{"smiles": "CN[C@@H](C)Cc1ccc2c(c1)OCO2", "note": "[(S)-4, (S)-3,4-methylenedioxymethamphetamine]", "values": [{"measurement": "excitation in humans", "setting": "[1]", "value": "excitation"}]}
{"smiles": "C[C@H](N)Cc1ccccc1", "note": "[(S)-1, (S)-amphetamine]", "values": [{"measurement": "EC50", "setting": "rTAAR1", "value": "1200 ± 70", "unit": "nM"}, {"measurement": "EC50", "setting": "DAT", "value": "[…]"}, {"measurement": "EC50", "setting": "mTAAR1", "value": "2 ± 1", "unit": "nM"}]}
{"smiles": "COc1cc(C[C@H](C)N)c(OC)cc1C", "note": "[(S)-8, (S)-4-methyl-2,5-dimethoxyamphetamine]", "values": [{"measurement": "agonist activity at hTAAR1 (in words)", "setting": "hTAAR1", "value": "lack of observed agonist activity"}]}
{"smiles": "COc1cc(C[C@H](C)N)c(OC)cc1Br", "note": "[(S)-7, (S)-4-bromo-2,5-dimethoxyamphetamine]", "values": [{"measurement": "effect in humans", "setting": "[1]; doses of 0.5–1.0 mg", "value": "no effect"}]}
{"smiles": "C[C@H](N)Cc1ccc2c(c1)OCO2", "note": "[(S)-3, (S)-3,4-methylenedioxyamphetamine]", "values": [{"measurement": "excitation in humans", "setting": "[1]", "value": "excitation"}]}
{"smiles": "C[C@@H](N)Cc1ccccc1", "note": "[(R)-1, (R)-amphetamine]", "values": [{"measurement": "EC50", "setting": "rTAAR1", "value": "[…]"}, {"measurement": "EC50", "setting": "mTAAR1", "value": "65 ± 53", "unit": "nM"}]}
